This is an account of results in US11098061B2 (Celgene CAR LLC, priority 2013, dated 2021).

One experiment has as its system TNFα release. As to the kind of experiment: PO mouse PD experiment (TNFα release after LPS). The class given is in vivo. Particulars: CD-1 male mice, 30 mg/kg PO, 1 hour prior to LPS, read-out: % Inhibition of TNFa. Here is the method:
CD-1 male mice, approximately 5 weeks old were acquired from Charles River Laboratories. Animals were housed in ventilated cages with a 12/12 light cycle and provided rodent chow and water ad libitum. Mice were acclimated at least 1 week prior to study initiation (approximately 6 weeks old). Five (5) mice per group were predosed at 30 mg/kg PO with one of the following compounds: III-8, III-35, II-27, III-47, III-56, V-39, II-27, III-37, II-e-1, II-e-3, III-40, and V-58 (by oral gavage as a suspension in 0.5% methyl cellulose/0.25% Tween 80 in deionized water), 1 hour prior to LPS administration. LPS (E.Coli 055:B5 from Sigma, Cat #L2880) was diluted in 0.9% sterile saline (Webster Veterinary Supply, Cat #07-883-6734) to a final concentration of 30 μg/mL. Animals were administered 15 μg in 0.5 mL/mouse (approximately 0.5 mg/kg LPS) intraperitoneally. One hour post LPS administration, the mice were sacrificed via CO2 and whole blood was collected by cardiac puncture. Blood was placed in EDTA K2 tubes (Braintree Scientific, Cat #MT-1395), inverted 3 times and placed on wet ice until centrifugation at 4° C. Plasma was collected and stored on dry ice until stored at −80° C. until processing. TNFα levels were quantified using the “Mouse TNF-alpha Ultra-Sensitive Kit” from mesoscale.com (catalog number K152BHC-2) in conjunction with an MSD plate reader.

In experiment [1] the target is p38a activated, mitogen-activated protein kinase-activated protein kinase 2 (MAPKAP-K2 or MK-2) enzyme (Homo sapiens (Human), UniProt P49137). As to the kind of experiment: MK2 Omnia continuous-read kinase assay for compound potency. Format: biochemical. Conditions: [MK-2]=0.4 nM, [ATP]=1.0 mM, [ST3-Sox]=10 μM. Put shortly: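 Continuous Omnia fluorescence read (λex360/λem485) every 71 s after starting with 0.4 nM MK-2, with 1.0 mM ATP (appKM 8-10 μM) and 10 μM ST3-Sox substrate.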
p38a activated, mitogen-activated protein kinase-activated protein kinase 2 (MAPKAP-K2 or MK-2) enzyme, sequence (P49137 whole entry): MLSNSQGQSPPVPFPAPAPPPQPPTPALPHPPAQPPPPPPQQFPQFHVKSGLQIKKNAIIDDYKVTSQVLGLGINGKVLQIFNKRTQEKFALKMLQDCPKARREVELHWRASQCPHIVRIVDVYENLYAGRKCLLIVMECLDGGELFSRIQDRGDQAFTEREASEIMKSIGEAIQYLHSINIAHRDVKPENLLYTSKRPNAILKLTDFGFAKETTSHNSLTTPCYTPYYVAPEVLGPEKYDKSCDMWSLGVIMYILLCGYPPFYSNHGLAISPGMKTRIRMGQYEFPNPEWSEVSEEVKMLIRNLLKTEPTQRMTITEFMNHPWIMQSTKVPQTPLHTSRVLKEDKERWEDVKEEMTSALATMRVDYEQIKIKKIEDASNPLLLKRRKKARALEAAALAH

Experiment [2] addresses T1, MK2 (Homo sapiens (Human), UniProt P49137). Briefly: MK2 cellular assay (Hsp27 phosphorylation in Thp-1 cells). Conditions: differentiated Thp-1 cells, compound 1 hour, 50 ng/ml LPS 15 minutes, phosphorylation of Hsp27; read-out: MK2EC50. Format: cell-based. A digest of the protocol:
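PMA-differentiated (10 ng/ml, 2 days) human Thp-1 monocytic cells given compound for 1 h, washed, then stimulated with 50 ng/ml LPS for 15 min. Hsp27 phosphorylation measured by western blot of lysates (20 μg protein); EC50 from dose-response inhibition.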

Experiment [3] has as its target T1, MK2. As to the kind of experiment: MK2 modification assessment by whole protein mass spectrometry. The class given is binding. Conditions: intact MK2, 60 min, 10-fold excess of compound to protein. Put shortly: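 MK2 treated with compound is analysed intact by MALDI-TOF after C4 cleanup in sinapinic acid matrix. Percent modification is the centroid mass shift against control MK2 divided by compound mass.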

T1 sequence (P49137 whole entry): as above

As for `C=CC(=O)Nc1cc(-c2cc3c(ccc4c5c([nH]c43)CCC5=O)cn2)ccc1F` [II-e-3, N-(2-fluoro-5-(7-oxo-7,8,9,1-tetrahydrocyclopenta[4,5]pyrrolo[2,3-f]isoquinolin-2-yl)phenyl)acrylamide], the inhibition in vivo at 30 mg/kg in the experiment on TNFα release was not above 20%.

For `C=CC(=O)Nc1cccc(-c2cc3c(ccc4c5c([nH]c43)CCC5=O)cn2)c1` [II-e-1, N-(3-(7-oxo-7,8,9,10-tetrahydrocyclopenta[4,5]pyrrolo[2,3-f]isoquinolin-2-yl)phenyl)acrylamide], the IC50 (in general, the point on the concentration scale where inhibition reaches its midpoint) in experiment [1] was 101 to 500 nM. Besides, the EC50 at MK2 [2] is 501 to 999 nM. Moreover, at MK2 [3], the “MK2 Mass Mod” value is listed as “E (mass modification of ≥70%)”. Besides, in the experiment on TNFα release, the inhibition in vivo at 30 mg/kg is not above 20%.

On to `C=CC(=O)Nc1cc(-c2ccc3c(ccc4sc5c(c43)NC[C@@H](C)NC5=O)n2)ccc1C` [III-37, (R)—N-(2-methyl-5-(10-methyl-8-oxo-9,10,11,12-tetrahydro-8H-[1,4]diazepino[5′,6′:4,5]thieno[3,2-f]quinolin-3-yl)phenyl)acrylamide], for which the concentration for half-maximal inhibition (IC50) in experiment [1] is less than 100 nM. Moreover, the EC50 at MK2 [2] is less than 100 nM. Also, the “MK2 Mass Mod” value on MK2 [3] is listed as “E (mass modification of ≥70%)”. Moreover, the inhibition in vivo at 30 mg/kg in the experiment on TNFα release is not above 20%.

On to `C=CC(=O)Nc1cccc2oc(-c3ccc4cc5n(c4c3)C3(CCC3)CNC5=O)nc12` [Compound V-39, N-(2-(1′-oxo-2′,3′-dihydro-1′H-spiro[cyclobutane-1,4′-pyrazino [1,2-a]indol]-7′-yl)benzo[d]oxazol-4-yl)acrylamide], for which, in experiment [1], the IC50 was in the range of 101 to 500 nM. For the same molecule, the EC50 at MK2 [2] was in the range of 101 to 500 nM. The “MK2 Mass Mod” value at MK2 [3] is recorded as “E (mass modification of ≥70%)”. For the same molecule, the inhibition in vivo at 30 mg/kg in the experiment with TNFα release was not below 81%.

Regarding `C=CC(=O)Nc1cc(NC(=O)c2ccc3sc4c(c3c2)NC[C@@H](C)NC4=O)ccc1OCCN(C)C` [III-35, (R)—N-(3-acrylamido-4-(2-(dimethylamino)ethoxy)phenyl)-3-methyl-5-oxo-2,3,4,5-tetrahydro-1H-benzo[4,5]thieno[3,2-e][1,4]diazepine-9-carboxamide], in experiment [1], the concentration for half-maximal inhibition (IC50) was less than 100 nM. For the same molecule, at MK2 [2], the EC50 fell in the range of 101 to 500 nM. The “MK2 Mass Mod” value on MK2 [3] is recorded as “E (mass modification of ≥70%)”. Further, the inhibition in vivo at 30 mg/kg in the experiment on TNFα release is not above 20%.

Take `C=CC(=O)N1c2cc(NC(=O)c3ccc4cc5n(c4c3)C3(CCC3)CNC5=O)ccc2OCC1(C)C` [Compound V-58, N-(4-acryloyl-3,3-dimethyl-3,4-dihydro-2H-benzo[b][1,4]oxazin-6-yl)-1′-oxo-2′,3′-dihydro-1′H-spiro[cyclobutane-1,4′-pyrazino [1,2-a]indole]-7′-carboxamide]: the IC50 in experiment [1] was less than 100 nM. Moreover, the EC50 at MK2 [2] was less than 100 nM. Moreover, at MK2 [3], the “MK2 Mass Mod” value is recorded as “E (mass modification of ≥70%)”. Also, the inhibition in vivo at 30 mg/kg in the experiment with TNFα release is not above 20%.

On to `C=CC(=O)NC1CCCC1NC(=O)c1ccc2sc3c(c2c1)NC[C@@H](C)NC3=O` (some centres unmarked) [III-47], for which, in experiment [1], the IC50 was less than 100 nM. Moreover, the EC50 at MK2 [2] was less than 100 nM. Besides, the “MK2 Mass Mod” value on MK2 [3] is recorded as “E (mass modification of ≥70%)”. For the same molecule, the inhibition in vivo at 30 mg/kg in the experiment with TNFα release is not above 20%.

Regarding `C=CC(=O)Nc1cc(NC(=O)c2ccc3sc4c(c3c2)NC[C@@H](C)NC4=O)ccc1C1CCN(C)CC1` [III-56, (R)—N-(3-acrylamido-4-(1-methylpiperidin-4-yl)phenyl)-3-methyl-5-oxo-2,3,4,5-tetrahydro-1H-benzo[4,5]thieno[3,2-e][1,4]diazepine-9-carboxamide], in the experiment with TNFα release, the inhibition in vivo at 30 mg/kg was not above 20%.

For `C=CC(=O)Nc1ncccc1NC(=O)c1ccc2cc3n(c2c1)C1(CCC1)CNC3=O` [Compound V-57, N-(2-acrylamidopyridin-3-yl)-1′-oxo-2′,3′-dihydro-1′H-spiro[cyclobutane-1,4′-pyrazino[1,2-a]indole]-7′-carboxamide], the IC50 in experiment [1] was less than 100 nM. Further, the EC50 at MK2 [2] fell in the range of 101 to 500 nM. The “MK2 Mass Mod” value at MK2 [3] is “E (mass modification of ≥70%)”.

On to `C=CC(=O)Nc1cc(NC(=O)c2ccc3sc4c(c3c2)NC[C@@H](C)NC4=O)ccc1F` [III-6, (R)—N-(3-acrylamido-4-fluorophenyl)-3-methyl-5-oxo-2,3,4,5-tetrahydro-1H-benzo[4,5]thieno[3,2-e][1,4]diazepine-9-carboxamide], for which the IC50 in experiment [1] is less than 100 nM. Also, the EC50 at MK2 [2] is less than 100 nM. Besides, the “MK2 Mass Mod” value on MK2 [3] was “E (mass modification of ≥70%)”.

For `C=CC(=O)Nc1cc(-c2cc3c(cn2)CCc2c-3[nH]c3c2C(=O)NCC3)ccc1OCCCN` [II-10, N-(2-(3-aminopropoxy)-5-(7-ox-6,7,8,9,11-hexahydro-5H-pyrido[3′,4′:4,5]pyrrolo[2,3-f]isoquinolin-2-yl)phenyl)acrylamide], the 50% inhibitory concentration (IC50) in experiment [1] is less than 100 nM. For the same molecule, at MK2 [2], the EC50 fell in the range of 501 to 999 nM. Further, the “MK2 Mass Mod” value on MK2 [3] is given as “E (mass modification of ≥70%)”.

For the molecule `C=CC(=O)Nc1cc(Cl)cc2oc(-c3ccc4cc5n(c4c3)C3(CCC3)CNC5=O)nc12` [Compound V-62, N-(6-chloro-2-(1′-oxo-2′,3′-dihydro-1′H-spiro[cyclobutane-1,4′-pyrazino [1,2-a]indol]-7′-yl)benzo[d]oxazol-4-yl)acrylamide], in experiment [1], the 50% inhibitory concentration (IC50) fell in the range of 101 to 500 nM. In addition, the EC50 on MK2 [2] was in the range of 101 to 500 nM. Further, the “MK2 Mass Mod” value at MK2 [3] was “E (mass modification of ≥70%)”.

As for `C=CC(=O)Nc1cc(-c2nccc(-c3cc4n(c3)CCNC4=O)n2)ccc1OC` [V-c-2, N-(2-methoxy-5-(4-(1-oxo-1,2,3,4-tetrahydropyrrolo[1,2-a]pyrazin-7-yl)pyrimidin-2-yl)phenyl)acrylamide], in experiment [1], the IC50 was less than 100 nM. The EC50 at MK2 [2] is more than 1000 nM. Further, the “MK2 Mass Mod” value on MK2 [3] is listed as “E (mass modification of ≥70%)”.

`C=CC(=O)Nc1cc(-c2cc3c(cn2)CCc2c-3[nH]c3c2C(=O)NC2(CC2)C3)cnc1OCCOC` [II-8, N-(2-(2-methoxyethoxy)-5-(7′-oxo-5′,6′,7′,8′8′,1′,11′-hexahydrospiro[cyclopropane-1,9′-pyrido[3′,4′:4,5]pyrrolo[2,3-f]isoquinolin]-2′-yl)pyridin-3-yl)acrylamide]: the IC50 in experiment [1] was less than 100 nM. Also, the EC50 at MK2 [2] was less than 100 nM. In addition, the “MK2 Mass Mod” value on MK2 [3] is “E (mass modification of ≥70%)”.

Regarding `C=CC(=O)Nc1cc(-c2cc3c(cn2)CCc2c-3[nH]c3c2C(=O)NC2(CC2)C3)ccc1F` [II-6, N-(2-fluoro-5-(7′-oxo-5′,6′,7′,8′,10′,11′-hexahydrospiro[cyclopropane-1,9′-pyrido[3′,4′:4,5]pyrrolo[2,3-f]isoquinolin]-2′-yl)phenyl)acrylamide], the half-maximal inhibitory concentration (IC50) in experiment [1] was less than 100 nM. For the same molecule, the EC50 at MK2 [2] was less than 100 nM. In addition, the “MK2 Mass Mod” value at MK2 [3] is reported as “E (mass modification of ≥70%)”.

`C=CC(=O)Nc1cc(-c2cc3c(cn2)CCc2c-3[nH]c3c2C(=O)NC2(CC2)C3)cnc1OC` [II-5, N-(2-methoxy-5-(7′-oxo-5′,6′,7′,8′,10′,11′-hexahydrospiro[cyclopropane-1,9′-pyrido[3′,4′:4,5]pyrrolo[2,3-f]isoquinolin]-2′-yl)pyridin-3-yl)acrylamide]: the IC50 in experiment [1] was less than 100 nM. At MK2 [2], the EC50 was less than 100 nM. Moreover, at MK2 [3], the “MK2 Mass Mod” value is “E (mass modification of ≥70%)”.

On to `C=CC(=O)Nc1cc(NC(=O)c2ccc3sc4c(c3c2)NC[C@@H](C)NC4=O)ccc1OCCOC` [III-7, (R)—N-(3-acrylamido-4-(2-methoxyethoxy)phenyl)-3-methyl-5-oxo-2,3,4,5-tetrahydro-1H-benzo[4,5]thieno[3,2-e][1,4]diazepine-9-carboxamide], for which the IC50 in experiment [1] was less than 100 nM. In addition, on MK2 [2], the EC50 is more than 1000 nM. In addition, the “MK2 Mass Mod” value on MK2 [3] was “E (mass modification of ≥70%)”.
